The source of these data is BindingDB's records for patent US11926628 (Gilead Sciences, 2024).

pIC50: −log10 of the molar value.

The target in this experiment is Diacylglycerol kinase alpha (Homo sapiens, UniProt P23743). Nature of the experiment: DGKα Biochemical Activity Assay. On the procedure: Ten nanoliters of test compound dissolved in DMSO at various concentrations were dispensed into a 384-well low volume nonbinding service white plates (Corning #3824) using a Labcyte Echo instrument. Recombinant DGKα (Carna Biosciences) in assay buffer (5 μL in 50 mM MOPS [3-(N-morpholino) propanesulfonic acid], pH 7.2; 0.0025% Triton X-100; 1 mM dithiothreitol; 5 mM MgCl2, 200 μM ATP) was added to the compound-containing plate and was incubated for 15 minutes at 25° C. A substrate solution (5 μL in 1.7 mM 1,2-dioleoyl-sn-glycerol [18:1 DAG], 13.5 mM 1-palmitoyl-2-oleoyl-sn-glycero-3-phospho-L-serine [16:0-18:1 PS](POPS), 2 μM CaCl2, 100 mM Octylglucoside (OG), 1 mM DTT) (obtained from Carna Biosciences) diluted in DGK ALPHA assay buffer was then added to start the reaction. Final concentrations were 1 nM DGKα, 100 μM ATP, 1 μM calcium chloride, 0.85 mM 1,2-dioleoyl-sn-glycerol (18:1 DAG), 6.75 mM 1-palmitoyl-2-oleoyl-sn-glycero-3-phospho-L-serine (16:0-18:1 PS) (POPS), 1 μM CaCl2), 50 mM Octylglucoside (OG) and 5 mM MgCl2. The reaction mixture was incubated at 25° C. for 1 hour. ADP-Glo Reagent (10 μL, 10 mM Mg added) provided by the kit was added to each well and incubated at 25° C. for 40 minutes. Then, 20 μL of Kinase Detection Reagent was added and incubated at 25° C. for 40 minutes. Luciferase activity of each well was measured via luminescence on an Envision plate reader (PerkinElmer).
Chain of Diacylglycerol kinase alpha (P23743 whole entry): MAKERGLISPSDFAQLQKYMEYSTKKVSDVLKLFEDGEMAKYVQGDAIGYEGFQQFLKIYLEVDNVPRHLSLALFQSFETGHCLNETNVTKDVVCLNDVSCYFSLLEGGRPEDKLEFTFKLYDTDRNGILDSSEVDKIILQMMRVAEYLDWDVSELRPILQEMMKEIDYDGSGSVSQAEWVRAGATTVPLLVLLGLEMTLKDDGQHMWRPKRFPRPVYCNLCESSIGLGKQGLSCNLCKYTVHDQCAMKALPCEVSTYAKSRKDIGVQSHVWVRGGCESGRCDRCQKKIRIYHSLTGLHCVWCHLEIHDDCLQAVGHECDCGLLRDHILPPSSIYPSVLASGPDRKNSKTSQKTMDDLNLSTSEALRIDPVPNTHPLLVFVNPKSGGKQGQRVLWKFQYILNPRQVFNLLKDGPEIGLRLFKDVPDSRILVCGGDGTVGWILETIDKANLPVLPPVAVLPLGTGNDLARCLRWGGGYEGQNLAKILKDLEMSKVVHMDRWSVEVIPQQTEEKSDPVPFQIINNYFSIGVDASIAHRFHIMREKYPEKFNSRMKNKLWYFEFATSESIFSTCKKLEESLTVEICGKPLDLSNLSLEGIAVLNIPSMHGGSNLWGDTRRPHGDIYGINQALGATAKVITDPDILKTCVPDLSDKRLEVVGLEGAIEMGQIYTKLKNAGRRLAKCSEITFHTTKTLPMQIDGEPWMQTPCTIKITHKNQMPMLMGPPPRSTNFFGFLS
What is called pIC50 is the negative decadic logarithm of the IC50, by convention in mol/L. For `Cc1nnc2nc(N3CCCCc4c(C#CC(C)(C)C#N)cccc43)c3c(F)cncc3n12` [US11926628, Example 64], the pIC50 was 8.24.

`CN(C)c1ccc2c(N(C)c3cccc(C#CC(C)(C)C)c3)nc3nncn3c2n1` [US11926628, Example 110]: the pIC50 was 6.03. Take `CCOc1ccc2c(N(C)c3cccc(-c4ccc(C5CC5)cc4)c3)nc3nncn3c2n1` [US11926628, Example 113]: the pIC50 was 6.15.

The compound `COc1ccc(-c2cccc(N(C)c3nc4nncn4c4nc(N(C)C)ccc34)c2)cn1` [US11926628, Example 111] gave a pIC50 of 6.43. As for `CN(C)c1ccc2c(N(C)c3cccc(-c4ccc(C5CC5)cc4)c3)nc3nncn3c2n1` [US11926628, Example 112], the figure is 7.18.

`Cc1nnc2nc(N3CCCc4c(C#CC5(C(F)(F)F)CC5)cccc43)c3c(F)cncc3n12` [US11926628, Example 41] showed a pIC50 of 8.11.

On to `CN(c1cccc(C#CC(C)(C)C)c1)c1nc2nncn2c2cnccc12` [US11926628, Example 60], for which the pIC50 was 7.21. This pIC50 lies 0.90 log units lower than the previous one.
